Measurements taken from US8846694B2, “Pyrrolidone derivatives for use as MetAP-2 inhibitors” (Merck Patent GmbH, priority 2008, dated 2014).
Counter-ions that a name gives are not always drawn.

Target: MetAP-2 (Homo sapiens, UniProt P50579)
Test: MetAP-2 activity measurement (coupled enzymatic reactions, substrate Met-Arg-Ser, photometric at 450 nm)
Type: biochemical
Conditions: read-out: IC50 enzyme (Inhibition of MetAP-2)
Procedure: MetAP-2 Activity Measurement
The MetAP-2 activity is determined by coupling enzymatic reactions. The tripeptide Met-Arg-Ser (MAS) is employed as substrate. The methionine liberated is firstly converted into Metox and H2O2 by L-aminooxidase (AAO). In the second step, the peroxidase (POD) with the aid of the H2O2 catalyses the oxidation of the leukodye dianisidine to dianisidineox, the increase of which is detected photometrically at 450 nm.
MetAP-2 activity can be recorded continuously as kinetics. The reaction scheme illustrates that one mol of dianisidineox is formed per mol of methionene. The MetAP-2 enzyme activity can therefore be calculated directly as Δ absorption per time unit. […] of the MetAP-2 activity (mol of Met/time unit) is possible with the aid of the dianisidineox extinction coefficient.
The change in extinction per time unit is depicted graphically and a slope calculation is carried out in the visually linear region of the reaction.

Sequence of MetAP-2 (P50579 whole entry, species assumed): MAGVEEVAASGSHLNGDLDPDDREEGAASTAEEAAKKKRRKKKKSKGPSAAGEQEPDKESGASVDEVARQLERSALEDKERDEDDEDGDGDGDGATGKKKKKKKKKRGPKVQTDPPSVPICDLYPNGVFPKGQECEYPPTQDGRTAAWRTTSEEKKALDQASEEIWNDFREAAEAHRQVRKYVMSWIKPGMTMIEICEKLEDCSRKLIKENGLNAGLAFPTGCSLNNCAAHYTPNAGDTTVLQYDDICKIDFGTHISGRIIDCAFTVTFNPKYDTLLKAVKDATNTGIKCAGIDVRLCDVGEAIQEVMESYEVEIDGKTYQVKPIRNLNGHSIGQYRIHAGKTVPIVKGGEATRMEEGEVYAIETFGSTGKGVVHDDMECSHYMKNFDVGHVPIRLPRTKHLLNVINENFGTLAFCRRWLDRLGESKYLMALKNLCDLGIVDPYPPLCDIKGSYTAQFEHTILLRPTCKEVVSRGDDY

Row | SMILES | IC50
1 | c1cc(OC[C@H]2CCCN2c2ncnc3[nH]cnc23)c2cccnc2c1 [A86, 5-[(R)-1-(9H-Purin-6-yl)pyrrolidin-2-yl-methoxy]quinoline] | 10 to 1000 nM
2 | c1cc(OC[C@H]2CCCN2c2ncnc3[nH]cnc23)c2cc[nH]c2c1 [A40, 6-[(R)-2-(1H-lndol-4-yloxymethyl)pyrrolidin-1-yl]-9H-purine] | 1000 to 10000 nM
3 | Cc1cc2c(OC[C@H]3CCCN3c3ncnc4[nH]cnc34)cccc2n1C(=O)C(F)(F)F [A75, 2,2,2-Trifluoro-1-{2-methyl-4-[(R)-1-(9H-purin-6-yl)pyrrolidin-2-ylmethoxy]indol-1-yl}ethanone] | 1000 to 10000 nM
4 | CCNC(=O)c1cc(OC[C@H]2CCCN2c2ncnc3[nH]cnc23)c2ccccc2n1 [A50, N-Ethyl-4-[(R)-1-(9H-purin-6-yl)pyrrolidin-2-yl-methoxy]quinoline-2-carboxamide formate] | 10 to 1000 nM
5 | c1cnc2c(OC[C@H]3CCCN3c3ncnc4[nH]cnc34)ccc(CN3CCCCC3)c2c1 [A42, 5-Piperidin-1-ylmethyl-8-[(R)-1-(9H-purin-6-yl)-pyrrolidin-2-ylmethoxy]quinoline formate] | 1000 to 10000 nM
6 | CC(=O)N1CCN(Cc2ccc(OC[C@H]3CCCN3c3ncnc4[nH]cnc34)c3ccccc23)CC1 [A111, 1-(4-{4-[(R)-1-(9H-Purin-6-yl)pyrrolidin-2-yl-methoxy]naphthalen-1-ylmethyl}piperazin-1-yl)-ethanone] | 10 to 1000 nM
7 | O[C@@H]1C[C@H](COc2cccc3ccccc23)N(c2ncnc3[nH]cnc23)C1 [A30, (3R,5R)-5-(Naphthalen-1-yloxymethyl)-1-(9H-purin-6-yl)pyrrolidin-3-ol] | > 10000 nM
8 | CCCNC(=O)c1cc(OC[C@H]2CCCN2c2ncnc3[nH]cnc23)c2ccccc2n1 [A71, N-Propyl-4-[(R)-1-(9H-purin-6-yl)pyrrolidin-2-yl-methoxy]quinoline-2-carboxamide] | 10 to 1000 nM
9 | COCCN1CCN(Cc2ccc(OC[C@H]3CCCN3c3ncnc4[nH]cnc34)c3ccccc23)CC1 [A113, 6-((R)-2-{4-[4-(2-Methoxyethyl)piperazin-1-yl-methyl]naphthalen-1-yloxymethyl}pyrrolidin-1-yl)-9H-purine] | 10 to 1000 nM
10 | Fc1ccc(-c2ncc(OC[C@H]3CCCN3c3ncnc4[nH]cnc34)cn2)cc1 [A77, 6-{(R)-2-[2-(4-Fluorophenyl)pyrimidin-5-yl-oxymethyl]pyrrolidin-1-yl}-9H-purine] | 1000 to 10000 nM
11 | O=C(NCC1CC(O)C1)c1cc(OC[C@H]2CCCN2c2ncnc3[nH]cnc23)c2ccccc2n1 (stereo partly drawn) [A88, N-(3-Hydroxycyclobutylmethyl)-4-[(R)-1-(9H-purin-6-yl)pyrrolidin-2-ylmethoxy]quinoline-2-carboxamide] | 10 to 1000 nM
12 | c1cc(OC[C@H]2CCCN2c2ncnc3[nH]cnc23)c2cc(N3CCNCC3)ccc2c1 [A115, 6-[(R)-2-(7-Piperazin-1-ylnaphthalen-1-yl-oxymethyl)pyrrolidin-1-yl]-9H-purine] | 10 to 1000 nM
13 | Cc1nc2c(N3CCC[C@@H]3COc3ccccc3Cl)ncnc2[nH]1 [A16, 6-[(R)-2-(2-Chlorophenoxymethyl)pyrrolidin-1-yl]-8-methyl-9H-purine] | > 10000 nM
14 | c1ccc(-c2ccccc2OC[C@H]2CCCN2c2ncnc3[nH]cnc23)cc1 [A62, 6-[(R)-2-(Biphenyl-2-yloxymethyl)pyrrolidin-1-yl]-9H-purine] | 1000 to 10000 nM
15 | CCOC(=O)/C=C/c1ccccc1OC[C@H]1CCCN1c1ncnc2[nH]cnc12 [A74, Ethyl (E)-3-{2-[(R)-1-(9H-purin-6-yl)pyrrolidin-2-ylmethoxy]phenyl}acrylate] | 10 to 1000 nM
16 | CNC(=O)c1cc(OC[C@H]2CCCN2c2ncnc3[nH]cnc23)c2ccccc2n1 [A48, N-Methyl-4-[(R)-1-(9H-purin-6-yl)pyrrolidin-2-yl-methoxy]quinoline-2-carboxamide formate] | 10 to 1000 nM
17 | O=C1/C(=C\c2cc[nH]n2)CCc2c(OC[C@H]3CCCN3c3ncnc4[nH]cnc34)cccc21 [A83, 5-[(R)-1-(9H-Purin-6-yl)pyrrolidin-2-ylmethoxy]-2-[1-(1H-pyrazol-3-yl)meth-(Z)-yildene]-3,4-dihydro-2H-naphthaien-1-one] | 10 to 1000 nM
18 | CCCCCNC(=O)c1cc(OC[C@H]2CCCN2c2ncnc3[nH]cnc23)c2ccccc2n1 [A81, N-Pentyl-4-[(R)-1-(9H-purin-6-yl)pyrrolidin-2-yl-methoxy]quinoline-2-carboxamide] | 10 to 1000 nM

More lines, now with the values ahead:

Row | IC50 | SMILES
19 | 10 to 1000 nM | CN(C)CCNc1ncc(OC[C@H]2CCCN2c2ncnc3[nH]cnc23)c2ccccc12 [A181, N,N-Dimethyl-N′-{4-[(R)-1-(9H-purin-6-yl)-pyrrolidin-2-ylmethoxy]isoquinolin-1-yl}ethane-1,2-diamine]
20 | > 10000 nM | Cn1c(C(=O)NCc2ccc(F)cc2)c(OC[C@H]2CCCN2c2ncnc3[nH]cnc23)c2cc(F)ccc21 [A197, N-(4-Fluorobenzyl)-5-fluoro-1-methyl-3-[(R)-1-(9H-purin-6-yl)pyrrolidin-2-ylmethoxy]-1H-indole-2-carboxamide]
21 | 10 to 1000 nM | Clc1ccc(-n2ccc(OC[C@H]3CCCN3c3ncnc4[nH]cnc34)n2)c(Cl)c1 [A153, 6-{(R)-2-[1-(2,4-Dichlorophenyl)-1H-pyrazol-3-yloxymethyl]pyrrolidin-1-yl}-9H-purine]
22 | 10 to 1000 nM | c1ccc2c(OC[C@H]3CCCN3c3ncnc4[nH]cnc34)cncc2c1 [A148, 4-[(R)-1-(9H-Purin-6-yl)pyrrolidin-2-yl-methoxy]isoquinoline]
23 | 10 to 1000 nM | c1ccc2c(OC[C@H]3CCCN3c3ncnc4[nH]cnc34)cc(CNCCN3CCOCC3)nc2c1 [A191, (2-Morpholin-4-ylethyl)-{4-[(R)-1-(9H-purin-6-yl)pyrrolidin-2-ylmethoxy]quinolin-2-yl-methyl}amine]
24 | 10 to 1000 nM | N[C@@H](Cc1c[nH]cn1)C(=O)N1CCc2cccc(OC[C@H]3CCCN3c3ncnc4[nH]cnc34)c2C1 [A195, (S)-2-Amino-3-(1H-imidazol-4-yl)-1-{8-[(R)-1-(9H-purin-6-yl)pyrrolidin-2-ylmethoxy]-3,4-dihydro-1H-isoquinolin-2-yl}propan-1-one]
25 | 10 to 1000 nM | COc1ccc2cccc(OC[C@H]3CCCN3c3ncnc4[nH]cnc34)c2c1 [A118, 6-[(R)-2-(7-Methoxynaphthalen-1-yloxymethyl)-pyrrolidin-1-yl]-9H-purine]
26 | 10 to 1000 nM | O=C1c2cccc(OC[C@H]3CCCN3c3ncnc4[nH]cnc34)c2CC[C@@H]1Cc1cc[nH]n1 [A129, (R)-5-[(R)-1-(9H-Purin-6-yl)pyrrolidin-2-yl-methoxy]-2-(1H-pyrazol-3-ylmethyl)-3,4-dihydro-2H-naphthalen-1-one]
27 | 10 to 1000 nM | CC(=O)N1CCN(c2ccc3cccc(OC[C@H]4CCCN4c4ncnc5[nH]cnc45)c3c2)CC1 [A116, 1-(4-{8-[(R)-1-(9H-Purin-6-yl)pyrrolidin-2-yl-methoxy]naphthalen-2-yl}piperazin-1-yl)-ethanone]
28 | 10 to 1000 nM | Cn1ncc(Cl)c1C[C@@H]1CCc2c(OC[C@H]3CCCN3c3ncnc4[nH]cnc34)cccc2C1=O [A125, (S)-2-(4-Chloro-2-methyl-2H-pyrazol-3-yl-methyl)-5-[(R)-1-(9H-purin-6-yl)pyrrolidin-2-yl-methoxy]-3,4-dihydro-2H-naphthalen-1-one]
29 | 1000 to 10000 nM | CC(C)(C)OC(=O)N[C@H](CC(N)=O)C(=O)N1CCc2cccc(OC[C@H]3CCCN3c3ncnc4[nH]cnc34)c2C1 [A188, tert-Butyl ((R)-1-carbamoylmethyl-2-oxo-2-{8-[(R)-1-(9H-purin-6-yl)pyrrolidin-2-ylmethoxy]-3,4-dihydro-1H-isoquinolin-2-yl}ethyl)carbamate]
30 | > 10000 nM | CCOC(=O)Cn1c(C(=O)OCC)c(OC[C@H]2CCCN2c2ncnc3[nH]cnc23)c2cc(F)ccc21 [A185, Ethyl 1-ethoxycarbonylmethyl-5-fluoro-3-[(R)-1-(9H-purin-6-yl)pyrrolidin-2-ylmethoxy]-1H-indole-2-carboxylate]
31 | 1000 to 10000 nM | NC(=O)CC[C@H](N)C(=O)Nc1ccc2cccc(OC[C@H]3CCCN3c3ncnc4[nH]cnc34)c2c1 [A165, N-(1-({8-[(R)-1-(9H-Purin-6-yl)pyrrolidin-2-yl-methoxy]naphthalen-2-yl})-(S)-2-aminopentan-5-amide * HCl]
32 | > 10000 nM | O=C(NCCN1CCOCC1)c1cc(OC[C@H]2CCCN2c2ncnc3[nH]cnc23)c2ccccc2n1 [A149, N-(2-Morpholin-4-ylethyl)-4-[(R)-1-(9H-purin-6-yl)pyrrolidin-2-ylmethoxy]quinoline-2-carboxamide]
33 | 10 to 1000 nM | CN(C)C(=O)CC1CCc2c(OC[C@H]3CCCN3c3ncnc4[nH]cnc34)cccc2C1=O (stereo partly drawn) [A173, N,N-Dimethyl-2-{1-oxo-5-[(R)-1-(9H-purin-6-yl)-pyrrolidin-2-ylmethoxy]-1,2,3,4-tetrahydro-naphthalen-2-yl}acetamide]
34 | 1000 to 10000 nM | NCC(=O)N1CCN(c2ccc3cccc(OC[C@H]4CCCN4c4ncnc5[nH]cnc45)c3c2)CC1 [A168, 2-Amino-1-(4-{8-[(R)-1-(9H-purin-6-yl)pyrrolidin-2-ylmethoxy]naphthalen-2-yl}piperazin-1-yl)-ethanone]
35 | 1000 to 10000 nM | CC(C)(C)OC(=O)NCC(=O)N1CCN(c2ccc3cccc(OC[C@H]4CCCN4c4ncnc5[nH]cnc45)c3c2)CC1 [A167, tert-Butyl [2-oxo-2-(4-{8-[(R)-1-(9H-purin-6-yl)-pyrrolidin-2-ylmethoxy]naphthalen-2-yl}-piperazin-1-yl)ethyl]carbamate]
36 | 10 to 1000 nM | O=[N+]([O-])c1ccc2cccc(OC[C@H]3CCCN3c3ncnc4[nH]cnc34)c2c1 [A142, 6-[(R)-2-(7-Nitronaphthalen-1-yloxymethyl)-pyrrolidin-1-yl]-9H-purine]
